# Tests used:
# nutsedge, yellow = assay: Test C preemergence; type: in vivo, Cyperus esculentus; settings: for Plant response rating (scale of 0 to 100 where 0 is no effect and 100 is complete control): Nutsedge, Yellow, preemergence; for Nutsedge, Yellow plant response rating (0 to 100): Preemergence, visual rating after 13 to 15 d
# Excerpt: (§1) Seeds of plant species selected from blackgrass (Alopecurus myosuroides), ryegrass, Italian (Italian ryegrass, Lolium multiflorum), wheat (winter wheat, Triticum aestivum), galium (catchweed bedstraw, Galium aparine), corn (Zea mays), crabgrass, large (large crabgrass, Digitaria sanguinalis), foxtail, giant, (giant foxtail, Setaria faberii), johnsongrass (Sorghum halepense), lambsquarters (Chenopodium album), morningglory (Ipomoea coccinea), nutsedge, yellow (yellow nutsedge, Cyperus esculentus), pigweed (Amaranthus retroflexus), ragweed (common ragweed, Ambrosia elatior), soybean (Glycine max), barnyardgrass (Echinochloa crus-galli), oilseed rape (Brassica napus), waterhemp (common waterhemp, Amaranthus rudis), and velvetleaf (Abutilon theophrasti) were planted into a blend of loam soil and sand and treated preemergence with test chemicals formulated in a non-phytotoxic solvent mixture which included a surfactant. At the same time, plants selected from these crop and weed species and also chickweed (common chickweed, Stellaria media), oat, wild (wild oat, Avena fatua), and kochia (Kochia scoparia), were planted in pots containing Sunshine Redi-Earth® planting medium comprising spaghnum peat moss, vermiculite, starter nutrients and dolomitic limestone and treated with postemergence applications of test chemicals formulated in the same manner. Plants ranged in height from 2 to 18 cm (1- to 4-leaf stage) for postemergence treatments. […] A dash (-) response means no test result.
# wild mustard = assay: Test D postemergence; type: in vivo, Sinapis arvensis; settings: scale 0 to 100
# Excerpt: (§2) Seeds of plant species selected from bluegrass (annual bluegrass, Poa annua), blackgrass (Alopecurus myosuroides), canarygrass (Phalaris minor), chickweed (common chickweed, Stellaria media), galium (catchweed bedstraw, Galium aparine), bromegrass, down (downy bromegrass, Bromus tectorum), Russian thistle (Salsola kali), field poppy (Papaver rhoeas), field violet (Viola arvensis), foxtail, green (green foxtail, Setaria viridis), deadnettle (henbit deadnettle, Lamium amplexicaule), ryegrass, Ital. (Italian ryegrass, Lolium multiflorum), kochia (Kochia scoparia), lambsquarters (Chenopodium album), oilseed rape (Brassica napus), pigweed (Amaranthus retroflexus), chamomile (scentless chamomile, Matricaria inodora), speedwell (bird's-eye speedwell, Veronica persica), barley, spring (spring barley, Hordeum vulgare), wheat, spring (spring wheat, Triticum aestivum), buckwheat, wild (wild buckwheat, Polygonum convolvulus), wild mustard (Sinapis arvensis), oat, wild (wild oat, Avena fatua), radish, wild (wild radish, Raphanus raphanistrum), […]), barley, winter (winter barley, Hordeum vulgare), and wheat, winter (winter wheat, Triticum aestivum) were planted into a silt loam soil and treated preemergence with test chemicals formulated in a non-phytotoxic solvent mixture which included a surfactant. At the same time, these species were planted in pots containing Sunshine Redi-Earth® planting medium comprising spaghnum peat moss, vermiculite, starter nutrients and dolomitic limestone and treated with postemergence applications of the test chemicals formulated in the same manner. Plants ranged in height from 2 to 18 cm (1- to 4-leaf stage). Treated plants and controls were maintained in a controlled growth environment for 14 to 21 d after which time all species were compared to controls and visually evaluated. […] A dash (-) response means no test result.
# ryegrass, Ital. = assay: Test D postemergence; type: in vivo, Lolium multiflorum; settings: scale 0 to 100
# Excerpt: as §2
# chickweed = assay: Test D preemergence; type: in vivo, Stellaria media; settings: for Plant response rating (0 to 100), Chickweed: 16 g ai/ha, 0 is no effect, 100 is complete control; for Plant response rating: Chickweed: scale 0 to 100
# Excerpt: as §2
# morningglory = assay: Test C preemergence; type: in vivo, Ipomoea coccinea; settings: for Plant response rating (scale of 0 to 100 where 0 is no effect and 100 is complete control): Morningglory, preemergence; for Morningglory plant response rating (0 to 100): Preemergence, visual rating after 13 to 15 d
# Excerpt: as §1
# ryegrass, Italian [1] = assay: Test A preemergence; type: in vivo, Lolium multiflorum; settings: 0 to 100 scale (0 no effect, 100 complete control)
# Method in brief: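 Ratings reflect visual injury after ~10 d in greenhouse, 0 = no effect, 100 = complete control. Postemergence treatment was applied to one- to two-leaf seedlings; preemergence treatment was a directed soil spray at planting.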
# blackgrass = assay: Test D preemergence; type: in vivo, Alopecurus myosuroides; settings: for Plant response rating (0 to 100), Blackgrass: 16 g ai/ha, 0 is no effect, 100 is complete control; for Plant response rating: Blackgrass: scale 0 to 100
# Excerpt: as §2
# ryegrass, Italian [2] = assay: Test C preemergence; type: in vivo, Lolium multiflorum; settings: for Ryegrass, Italian plant response rating (0 to 100): Preemergence, visual rating after 13 to 15 d; for Plant response rating (scale of 0 to 100 where 0 is no effect and 100 is complete control): Ryegrass, Italian, preemergence
# Excerpt: as §1
SMILES,"Plant response rating (scale of 0 to 100 where 0 is no effect and 100 is complete control) (nutsedge, yellow; 125 g ai/ha)","Plant response rating (scale of 0 to 100 where 0 is no effect and 100 is complete control) (nutsedge, yellow; 250 g ai/ha)","Nutsedge, Yellow plant response rating (0 to 100) (nutsedge, yellow; 31 g ai/ha)","Nutsedge, Yellow plant response rating (0 to 100) (nutsedge, yellow; 62 g ai/ha)","Plant response rating: Mustard, Wild (wild mustard; 16 g ai/ha)","Plant response rating: Mustard, Wild (wild mustard; 31 g ai/ha)","Plant response rating: Mustard, Wild (wild mustard; 62 g ai/ha)","Plant response rating: Mustard, Wild (wild mustard; 125 g ai/ha)","Plant response rating: Ryegrass, Ital. (ryegrass, Ital.; 16 g ai/ha)","Plant response rating: Ryegrass, Ital. (ryegrass, Ital.; 31 g ai/ha)","Plant response rating: Ryegrass, Ital. (ryegrass, Ital.; 62 g ai/ha)","Plant response rating: Ryegrass, Ital. (ryegrass, Ital.; 125 g ai/ha)","Plant response rating (0 to 100), Chickweed (chickweed)",Plant response rating: Chickweed (chickweed; 31 g ai/ha),Plant response rating: Chickweed (chickweed; 62 g ai/ha),Plant response rating: Chickweed (chickweed; 125 g ai/ha),Plant response rating (scale of 0 to 100 where 0 is no effect and 100 is complete control) (morningglory; 125 g ai/ha),Plant response rating (scale of 0 to 100 where 0 is no effect and 100 is complete control) (morningglory; 250 g ai/ha),Morningglory plant response rating (0 to 100) (morningglory; 31 g ai/ha),Morningglory plant response rating (0 to 100) (morningglory; 62 g ai/ha),also measured
"CCOc1nc(-c2ccc(C(F)(F)F)cc2)nn1Cc1ccnc(C(F)(F)F)c1 [Compound 35, 4-[[5-ethoxy-3-[4-(trifluoromethyl)phenyl]-1H-1,2,4-triazole-1-yl]methyl]-2-(trifluoromethyl)pyridine]",0,0,0,0,70,100,100,100,30,60,65,75,70,85,100,100,80,90,70,60,"Plant response rating, Ryegrass, Italian (ryegrass, Italian [1]; 31 g ai/ha): 30; Plant response rating, Ryegrass, Italian (ryegrass, Italian [1]; 125 g ai/ha): 60; Plant response rating (0 to 100), Blackgrass (blackgrass): 35; Plant response rating: Blackgrass (blackgrass; 31 g ai/ha): 40; Plant response rating: Blackgrass (blackgrass; 62 g ai/ha): 65; Plant response rating: Blackgrass (blackgrass; 125 g ai/ha): 95; Ryegrass, Italian plant response rating (0 to 100) (ryegrass, Italian [2]; 31 g ai/ha): 70; Ryegrass, Italian plant response rating (0 to 100) (ryegrass, Italian [2]; 62 g ai/ha): 85; Plant response rating (scale of 0 to 100 where 0 is no effect and 100 is complete control) (ryegrass, Italian [2]; 125 g ai/ha): 90; Plant response rating (scale of 0 to 100 where 0 is no effect and 100 is complete control) (ryegrass, Italian [2]; 250 g ai/ha): 90"
FC(F)(F)COc1nc(-c2ccc(Cl)cc2)nn1Cc1ccnc(C(F)(F)F)c1 [Compound 31],5,5,0,0,100,100,100,100,25,30,55,65,80,90,100,100,55,65,25,45,"Plant response rating, Ryegrass, Italian (ryegrass, Italian [1]; 125 g ai/ha): 90; Plant response rating, Ryegrass, Italian (ryegrass, Italian [1]; 500 g ai/ha): 100; Plant response rating (0 to 100), Blackgrass (blackgrass): 35; Plant response rating: Blackgrass (blackgrass; 31 g ai/ha): 40; Plant response rating: Blackgrass (blackgrass; 62 g ai/ha): 60; Plant response rating: Blackgrass (blackgrass; 125 g ai/ha): 75; Ryegrass, Italian plant response rating (0 to 100) (ryegrass, Italian [2]; 31 g ai/ha): 50; Ryegrass, Italian plant response rating (0 to 100) (ryegrass, Italian [2]; 62 g ai/ha): 60; Plant response rating (scale of 0 to 100 where 0 is no effect and 100 is complete control) (ryegrass, Italian [2]; 125 g ai/ha): 90; Plant response rating (scale of 0 to 100 where 0 is no effect and 100 is complete control) (ryegrass, Italian [2]; 250 g ai/ha): 90"
CCOc1nc(-c2ccccc2)nn1Cc1ccnc(C(F)(F)F)c1 [Compound 27],35,60,5,10,80,100,100,100,15,20,35,60,85,95,100,100,100,95,20,80,"Plant response rating, Ryegrass, Italian (ryegrass, Italian [1]; 125 g ai/ha): 90; Plant response rating, Ryegrass, Italian (ryegrass, Italian [1]; 500 g ai/ha, approx. 10 d): 100; Plant response rating (0 to 100), Blackgrass (blackgrass): 25; Plant response rating: Blackgrass (blackgrass; 31 g ai/ha): 30; Plant response rating: Blackgrass (blackgrass; 62 g ai/ha): 45; Plant response rating: Blackgrass (blackgrass; 125 g ai/ha): 70; Ryegrass, Italian plant response rating (0 to 100) (ryegrass, Italian [2]; 31 g ai/ha): 25; Ryegrass, Italian plant response rating (0 to 100) (ryegrass, Italian [2]; 62 g ai/ha): 30; Plant response rating (scale of 0 to 100 where 0 is no effect and 100 is complete control) (ryegrass, Italian [2]; 125 g ai/ha): 90; Plant response rating (scale of 0 to 100 where 0 is no effect and 100 is complete control) (ryegrass, Italian [2]; 250 g ai/ha): 95"
FC(F)(F)COc1nc(-c2ccccc2)nn1Cc1ccnc(C(F)(F)F)c1 [Compound 24],5,15,0,0,65,70,100,100,15,25,30,40,55,60,70,90,35,40,10,30,"Plant response rating, Ryegrass, Italian (ryegrass, Italian [1]; 125 g ai/ha): 70; Plant response rating, Ryegrass, Italian (ryegrass, Italian [1]; 500 g ai/ha, approx. 10 d): 80; Plant response rating (0 to 100), Blackgrass (blackgrass): 20; Plant response rating: Blackgrass (blackgrass; 31 g ai/ha): 45; Plant response rating: Blackgrass (blackgrass; 62 g ai/ha): 50; Plant response rating: Blackgrass (blackgrass; 125 g ai/ha): 65; Ryegrass, Italian plant response rating (0 to 100) (ryegrass, Italian [2]; 31 g ai/ha): 5; Ryegrass, Italian plant response rating (0 to 100) (ryegrass, Italian [2]; 62 g ai/ha): 15; Plant response rating (scale of 0 to 100 where 0 is no effect and 100 is complete control) (ryegrass, Italian [2]; 125 g ai/ha): 85; Plant response rating (scale of 0 to 100 where 0 is no effect and 100 is complete control) (ryegrass, Italian [2]; 250 g ai/ha): 90"
